Reference: PubChem BioAssay (NCI)
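Briefly, cells in 96-well plates were exposed to five compound concentrations for 48 h, and endpoints were estimated by linear interpolation. Abbreviation: GI50, concentration required for 50% inhibition of growth. The concentration for full growth arrest is given as TGI.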

Experiments:
Assay in all cases: NCI tumour cell line growth inhibition, 48 h
KM12 colon = system: KM12 colon
ACHN renal = system: ACHN renal
SF-268 CNS = system: SF-268 CNS
HOP-62 NSCLC = system: HOP-62 NSCLC
RPMI-8226 leukemia = system: RPMI-8226 leukemia
HL-60(TB) leukemia = system: HL-60(TB) leukemia
IGROV1 ovarian = system: IGROV1 ovarian
SF-539 CNS = system: SF-539 CNS
LOX IMVI melanoma = system: LOX IMVI melanoma
NCI/ADR-RES ovarian = system: NCI/ADR-RES ovarian

Row | Structure (SMILES) | TGI (KM12 colon) [µM] | TGI (ACHN renal) [µM] | TGI (SF-268 CNS) [µM] | TGI (HOP-62 NSCLC) [µM] | TGI (RPMI-8226 leukemia) [µM] | TGI (HL-60(TB) leukemia) [µM] | TGI (IGROV1 ovarian) [µM] | TGI (SF-539 CNS) [µM] | TGI (LOX IMVI melanoma) [µM] | TGI (NCI/ADR-RES ovarian) [µM] | GI50 (KM12 colon) [µM] | GI50 (ACHN renal) [µM] | GI50 (SF-268 CNS) [µM] | GI50 (HOP-62 NSCLC) [µM] | GI50 (HL-60(TB) leukemia) [µM] | GI50 (IGROV1 ovarian) [µM] | GI50 (SF-539 CNS) [µM] | GI50 (LOX IMVI melanoma) [µM] | GI50 (NCI/ADR-RES ovarian) [µM] | GI50 (RPMI-8226 leukemia) [µM]
1 | C[N+](C)(C)CC1CCC/C1=N\OC(=O)c1ccccc1 (centres undefined) | > 100 | > 100 | > 100 | > 100 | > 100 | > 100 | > 100 | > 100 | > 100 |  |  |  |  |  |  |  |  |  |  | 
2 | C[C@H]1CN[C@@H]2[C@@H](C)[C@H]3[C@@H](C[C@H]4[C@@H]5CC[C@H]6C[C@@H](N)CC[C@]6(C)[C@H]5CC[C@]34C)O[C@@]2(O)C1 | 11.1 | 9.3 | 7.15 |  |  | 4.08 | 9.66 | 3.27 | 4.08 | 5.66 |  |  |  |  |  |  |  |  |  | 
3 | CS/C(=C(\S)c1ccccc1)c1ccccc1 | > 100 | > 100 | > 100 | > 100 | > 100 | > 100 | > 100 | > 100 | > 100 |  |  |  |  |  |  |  |  |  |  | 
4 | CC(=O)N1CCC(=O)/C(=C/c2ccccc2)C1 | 51.6 | 56.8 | 62.6 | > 100 | > 100 |  | 46.4 | > 100 | 32.9 |  |  |  |  |  |  |  |  |  |  | 
5 | CC1(C)CC(=O)CC(=Nc2ccc([N+](=O)[O-])cc2)C1 | > 100 | > 100 | > 100 | > 100 | > 100 | > 100 | > 100 |  | 38.8 |  |  |  |  |  |  |  |  |  |  | 
6 | C=COC(=O)N[C@H]1CCc2cc(OC)c(OC)c(OC)c2-c2ccc(SC)c(=O)cc21 | 0.0388 | 64.9 | 44.9 | > 86.6 | 52.1 | < 0.01 | > 100 | < 0.0464 | > 95.8 |  |  |  |  |  |  |  |  |  |  | 
7 | C[C@]12CCC(=O)C=C1CC[C@@H]1C2CC[C@]2(C)Nc3[nH]ncc3CC12 (some centres undefined) | > 100 | > 100 |  | > 100 | > 100 | > 100 | > 100 | > 100 |  |  |  |  |  |  |  |  |  |  |  | 
8 | COC(=O)C1=C(C(=O)OC)C2=S(SC3=C2CCCC3)S1 (centres undefined) | 97.6 | > 100 | > 100 | > 100 | 30.1 | 30.9 | > 100 | 74 | 7.05 |  |  |  |  |  |  |  |  |  |  | 
9 | CC1CCN(C(=O)OCc2nc3nc(Cl)nc(N4CCOCC4)c3[nH]2)CC1 | 3.33 | 1.88 | 2.84 | 5 |  | 3.78 | 1.83 | 2.32 | 0.473 | 10.4 | 1.58 | 0.583 | 1.42 | 1.76 | 0.423 | 0.529 | 1.11 | 0.175 | 2.21 | 
10 | CCCCCCCN=C(N)c1ccc(N2CCN(c3ccc(C(N)=NCCCCCCC)cc3)CC2)cc1 | > 100 | 24.8 | 0.317 | > 100 | > 100 |  |  |  | 19.1 | > 57.7 | > 100 | 0.499 |  | 2.5 |  |  |  | 1.52 | 1.38 | 0.785
11 | CCN(CC)CCSc1c2ccccc2nc2c(OC)ccc(OC)c12 | 16.8 | > 23.5 | 26.1 | > 70.2 |  | 17.7 | 51.4 | > 33.9 | > 41.2 |  |  |  |  |  |  |  |  |  |  | 
12 | Cn1cc(-c2csc(-c3c[nH]c4ccc(Br)cc34)n2)c2cnccc21 | 5.48 |  | 7.96 | 13.9 | 4.8 | 7.91 |  | 4.6 |  |  | 2.33 |  | 2.83 | 3.17 | 2.11 |  | 2.14 |  |  | 2.13
13 | COC(=O)c1ccc(-c2c(C#N)[n+](=O)c3cc(Cl)c(Cl)cc3n2[O-])cc1 | 51.3 | 35.2 | 32.1 | 34.8 | 83.4 |  | > 100 | 40.5 | 5.37 | 75.6 | 20.9 | 17.2 | 16.4 | 16.8 |  | 3.39 | 19.7 | 2.38 | 23.2 | 29.8
14 | CCOC(=O)/C=C/c1ccc(C#Cc2ccccc2)cc1 | > 100 | > 100 | > 100 | > 100 | > 100 | > 100 |  | > 100 | > 100 | > 100 | > 100 | > 100 | > 100 | > 100 | > 100 |  | 1.54 | > 100 | > 100 | 54.5
15 | CN(C)CCNC(=O)c1cccc2c(Nc3ccc(S(=O)(=O)N=C(N)N)cc3)c3ccccc3nc12 | > 100 | 61.1 | 26.6 | 39.2 |  | 2.59 | 45 | 36.7 | 20.8 |  |  |  |  |  |  |  |  |  |  | 
16 | Cn1c2ccccc2c2ncc3[nH]c4ccccc4c3c21 | 33.9 | 54.9 | 61.8 | > 100 | 63 | 41.3 | 58.2 | 32.4 | 56.2 |  |  |  |  |  |  |  |  |  |  | 
17 | CCOC(=O)C1SC(=Nc2ccccc2)N=C1C (centres undefined) | > 100 | > 100 | > 100 | > 100 | > 100 | > 100 | > 100 | > 100 | > 100 |  |  |  |  |  |  |  |  |  |  | 
18 | O=[N+]([O-])c1ccc(-c2cnc3ccccn23)cc1 | > 100 | > 100 | > 100 | > 100 | > 100 | > 100 |  | > 100 | > 100 |  |  |  |  |  |  |  |  |  |  | 
19 | O=C1CCC(=O)c2c1c(O)c1ccncc1c2O | 38.9 | 28.6 |  | 69 | 55.5 | 26.4 | 31.6 | 29 | 27.4 |  |  |  |  |  |  |  |  |  |  | 
20 | O=C(Nc1cc(C(F)(F)F)ccc1Cl)c1cccc(NC2=C(Cl)C(=O)N(Cc3ccccc3)C2=O)c1 | > 100 | > 100 | > 100 | > 100 | 50 | 9.23 | > 100 | 53.7 | > 100 |  | 52.9 | 99.9 | 29.2 | > 100 | 3.52 | 2.81 | 26.4 | 5.65 |  | 2.92
